Experimental findings from patent US20260116892A1, “CRYSTAL FORM OF COMPOUND AND PREPARATION METHOD THEREFOR” (NANJING INNOCARE PHARMA TECH CO., LTD., priority 2022, published 2026) are described below.

Common to all, as to assay type: physicochemical
Data set [1] in a line: Stability assessment of the crystalline form A (solid, accelerated and 12 months). The source says: The “stability” described in the present invention refers to that neither degradation of the crystalline form has been found nor transformation to other crystalline form has been detected in the determination of the crystalline form by analytical means such as LC detection, XRPD, etc.
The solid sample of crystalline form A was exposed to high temperature, high humidity and light (open) for au one month accelerated stability study to observe the purity of the sample and the stability of the crystalline form.
The solid sample of crystalline form A was placed under the 30° C./65% RH (closed) for a 12 months stability study to observe the purity of the sample and the stability of the crystalline form (XRPD pattern).

A short description of data set [2]: Hygroscopicity assessment by dynamic vapor sorption (DVS). As to conditions: 25° C. The method, then:
The “hygroscopicity” described in the present invention refers to the characteristic of the substance's ability or degree of absorbing water under the conditions of certain temperature and humidity. Regarding to the characteristic description of hygroscopicity and the definition of hygroscopic weight gain (performing experiments according to the method of guideline 9103 of Pharmacopoeia of the People's Republic of China (2015) Volume IV. experimental conditions: 25° C.±1° C., 80%±2% of relative humidity):
deliquescence: sufficient water absorption to form a solution; very hygroscopic: hygroscopic weight gain of not less than 15%; phygroscopic: hygroscopic weight gain of less than 15% but not less than 2%; slightly hygroscopic: hygroscopic weight gain of less than 2% but not less than 0.2%; not or almost not hygroscopic: hygroscopic weight gain of less than 0.2%.
The dynamic vapor sorption (DVS) diagram described in the present invention was acquired using an Intrinsic dynamic vapor sorption instrument produced by SMS (Surface Measurement Systems Ltd.). The method parameters of the dynamic vapor sorption described in the present invention are as follows: […]
About 30 mg of the crystalline form A of the present invention was taken and subjected to a dynamic vapor sorption test using a dynamic vapor sorption (DVS). […] The XRPD was measured before and after the test.

A short description of data set [3]: Suspension competition experiment between the crystalline forms in solution. As to conditions: equal amount of forms A/B in saturated solution of isopropyl alcohol and water, room temperature, stirring 2 days. The protocol:
The transformation relationship between the crystalline forms was studied by a suspension competition experiment in the solution. The suspension competition between the crystalline form A and the crystalline form B was carried out at room temperature. The crystalline form A was obtained by adding equal amount of the crystalline form A/B to the saturated solution of isopropyl alcohol and water with suspending and stirring for 2 days.

Setting [4] is: 12 months, 30° C./65% RH (closed).
[5] abbreviates: Acceleration for 1 month (25° C., 90% ± 5% RH), open.
[6] abbreviates: Acceleration for 1 month (60° C.), open.
Setting [7] is: Acceleration for 13 days (10 days of light exposure, 3 days of UV exposure), open.

Entries after “also recorded” stand apart in the source; their conditions may differ.

In the case of `C[C@H]1CNC(=O)Nc2cnn3ccc(nc23)N2C[C@@H](F)C[C@@H]2c2cc(F)cnc2O1` [crystalline form A, (2^2R,2^4S,5S)-2^4,3^5-difluoro-5-methyl-4-oxa-7,9-diaza-1(5,3)-pyrazolo[1,5-a]pyrimidin-3(3,2)-pyridin-2(1,2)-pyrrolidincyclononan-8-one], the “Purity (%)” value in data set [1] (0 month (start of stability study)) turned out to be 98.9%; in data set [1] (setting [4]), 99.4%; in data set [1] (setting [5]) it was 98.5%; in data set [1] (setting [6]), 98.3%; in data set [1] (setting [7]), 99.4%. Moreover, the “Crystalline form (XRPD)” value in data set [1] (setting [4]), in data set [1] (setting [5]), in data set [1] (setting [6]) and in data set [1] (setting [7]) was “Unchanged” throughout. The “Stability (conclusion in words)” value in data set [1] (60° C. 1 month, 25° C./90%±5% RH 1 month, light 13 days, 30° C./65% RH 12 months) is given as “stable state; also recorded: good stability”. For the same compound, the “Crystalline form before and after DVS test (XRPD)” value in data set [2] (0% RH to 95% RH) is “remained unchanged”. In addition, in data set [2] (80% relative humidity), the “Weight gain (DVS)” value was 0.46%. Also, in data set [3], the “Thermodynamic stability / transformation in suspension competition” value is reported as “better thermodynamic stability”.

For the compound `C[C@H]1CNC(=O)Nc2cnn3ccc(nc23)N2C[C@@H](F)C[C@@H]2c2cc(F)cnc2O1` [crystalline form B, (2^2R,2^4S,5S)-2^4,3^5-difluoro-5-methyl-4-oxa-7,9-diaza-1(5,3)-pyrazolo[1,5-a]pyrimidin-3(3,2)-pyridin-2(1,2)-pyrrolidincyclononan-8-one], in data set [3], the “Thermodynamic stability / transformation in suspension competition” value is “can be transformed into the crystalline form A”.
